Molecular target: T1, CaCDPK1 (Cicer arietinum, UniProt Q7XZK5)
T1 construct: gene CDPK1; full ORF in pRSET A (His-tag), expressed in Escherichia coli BL21, Ni-NTA purified under native conditions; tag removal not mentioned
Assay: intrinsic tryptophan fluorescence quenching at […] nm
Type: binding
Settings: PA vesicles (sonicated), 1 mM CaCl2, pH 7.2, 25 °C, 1 µM protein; half-maximal fluorescence change; activator

T1 sequence (Q7XZK5 1-556): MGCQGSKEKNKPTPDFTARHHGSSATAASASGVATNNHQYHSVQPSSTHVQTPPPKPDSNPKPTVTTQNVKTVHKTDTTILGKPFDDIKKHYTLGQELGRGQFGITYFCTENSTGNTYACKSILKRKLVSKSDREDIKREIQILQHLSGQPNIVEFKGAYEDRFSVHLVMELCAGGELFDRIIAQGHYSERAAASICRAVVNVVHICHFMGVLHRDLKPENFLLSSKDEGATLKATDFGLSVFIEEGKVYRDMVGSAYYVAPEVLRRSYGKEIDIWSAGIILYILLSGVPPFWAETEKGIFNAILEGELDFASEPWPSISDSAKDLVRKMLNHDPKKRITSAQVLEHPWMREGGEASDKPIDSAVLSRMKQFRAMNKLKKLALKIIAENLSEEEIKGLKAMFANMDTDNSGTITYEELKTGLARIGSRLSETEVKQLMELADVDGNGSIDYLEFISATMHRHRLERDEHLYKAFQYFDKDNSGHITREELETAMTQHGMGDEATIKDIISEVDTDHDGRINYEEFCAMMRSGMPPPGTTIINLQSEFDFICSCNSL

1,2-diacyl-sn-gylcero-3-P sodium salt [PA]
Kd: 335 nM
